Tested on: Porphyridium aerugineum
Experiment: Compound at a conc of 2 umol was tested for antialgal activity against Porphyridium aerugineum in filter paper-petri dish bioassay
Format: functional

SMILES	Inhibition zone [mm]
COc1ccc(-c2cc(OC)c3c4c(c(OC)ccc24)CCC3OC)cc1 (stereo not drawn)	25
COc1cc2ccc(-c3ccccc3)c3c2c(c1OC)CCC3OC (stereo not drawn)	25
COc1ccc2c(-c3ccccc3)cc(OC)c3c2c1CCC3OC (stereo not drawn)	25

Source: ChEMBL document CHEMBL1159149, “Phenalene metabolites from eichhornia crassipes” (1992)
